Assay results: article PMC8896685 (PLoS ONE, 2022)
Numbered stars: 1 amine (or outer) side, 2 acyl side, 3 side chain; on linkers, the order of the positions; unused ones are H or OH. Square brackets hold non-standard residues; d marks the D form. Side chains are listed from the residue outwards. Peptide text beside a SMILES is read from it. * marks the point of attachment. C18 diacid = O=C(O)CCCCCCCCCCCCCCCCC(=O)*; γGlu = O=C(O)[C@H](CCC(=O)[*:2])N[*:1]; Desaminohistidyl = O=C(CCc1c[nH]cn1)*; Ac4c = NC1(C(=O)O)CCC1; AEEA = NCCOCCOCC(=O)O; Aib = CC(C)(N)C(=O)O

Experiments:
DIO rats = assay: Subchronic effect on body weight, body composition and food intake in DIO rats; type: in vivo, rat; details: three weeks
Text: Male C57Bl/6J mice were purchased from Jackson Lab (Bar Harbour, ME) or Taconic, (Denmark). Male Sprague Dawley rats were purchased from Taconic (Denmark). Lean animals were fed regular chow diet (Altromin 1324, Brogaarden, Denmark). Obese animals were fed a high-fat diet, 45% kcal from fat (D12492, Research Diets, New Brunswick, NJ) from the age of 4–6 weeks in order to obtain a diet induced obese (DIO) phenotype. Animals were housed under temperature and humidity-controlled conditions in a 12:12 hr light:dark cycle (lights on at 6 a.m.). Rats were housed three per cage during high fat feeding and were single housed five weeks prior to study. Mice were single housed, two per cage, with a partitioning wall where possible. All animals had ad libitum access to diet and water, except when fasted prior to experimental procedures. Animals were acclimatized to study conditions (energy expenditure cages, daily mock handling etc) at least one week prior to first dose. […] At the time of study, animals were 20–30 weeks old with a body weight of 45–50 g (DIO mice) or approximately 600 g (DIO rats). […] Oral glucose tolerance was evaluated on study day 15, 5 h post-dosing (at Cmax). Animals were fasted for 5 h prior to oral administration of glucose (3 g/kg). […] Conscious animals were MR-scanned prior to initiation of treatment and at the end of the treatment period.

Mouse GCGR [1] = biological target: T1, Mouse GCGR (Mus musculus, UniProt Q61606); assay: Receptor potency, CRE-luciferase functional assay in BHK cells; type: cell-based; details: Mouse receptors, whole BHK cells, 3 h 37°C, value (95% CI)
T1 construct: a plasmid encoding either the glucagon receptor or the GLP-1 receptor from the relevant species; expressed in transfected cells
Description: (§1) The binding assay was performed on cell membranes in the presence of 1% (v/v) species-specific heparin-treated pooled plasma (Bioreclamation IVT, Westbury, NY) diluted in assay buffer (50 mM HEPES supplemented with 5 mM EGTA, 5 mM MgCl2, and 0.005% (v/v) Tween 20, pH7.4). […] Cells stably expressing an individual receptor of interest were grown at 5% CO2, 37°C in DMEM (supplemented with 10% FCS, 0.5 mg/ml G418 and 0.3 mg/ml hygromycin). Membrane preparations were made from cells harvested at approximately 80% confluence, washed and homogenized in 20 mM HEPES with 0.1 mM EDTA, pH 7.4. Protein concentration was determined, and the membranes were stored at -80°C until use. The membrane binding assay was performed in a 96-well OptiPlate (PerkinElmer) in a total volume of 200 μl. Test compounds were dissolved in 80% DMSO and further diluted in assay buffer. 50 μl of diluted plasma was added to the assay plate wells followed by addition of test compounds (25 μl), cell membranes (50 μl, 0.06 mg/ml), SPA beads (20 mg/ml in assay buffer) and radioligand (60,000 cpm/well, corresponding to 0.06 nM; 2200 Ci/mmol. Each assay plate was incubated for 2 h at 30°C, centrifuged at 1500 rpm for 10 minutes and counted in a TopCount NXT instrument (PerkinElmer).
(§2) Functional assays were performed on whole cells in the absence or presence of 100% species-specific heparin-treated pooled plasma (Bioreclamation IVT). […] The cells were cultured with DMEM (supplemented with GlutaMAX, 10% FBS, 0.5 mg/ml G418 and 0.3 mg/ml hygromycin) at 5% CO2 and 37°C. At approximately 80–90% confluence, cells were washed with PBS and harvested with Versene (Life Technologies, Carlsbad, CA). The cells were counted and plated into 96-well microtiter plates coated with poly-D-Lys (Corning BioCoat) with 5,000 cells/well and thereafter incubated overnight in growth media. The next day the media was changed to assay buffer (DMEM without phenol red, supplemented with GlutaMAX, 10 mM HEPES, 1% ovalbumin and 0.1% Pluronic F-68) or to 100% plasma. In the absence of plasma, compounds were diluted in assay buffer. In assays tested with plasma, compounds were diluted in pure plasma. Buffer was removed from the plates and 50 μl of test compound dilutions was added to the plates followed by 50 μl of plasma or the same buffer used for compound dilution. The assay plates were incubated for 3 h in a 5% CO2 incubator at 37°C. The plates were then transferred to room temperature for 15 min and 100 μl Steadylite Plus reagent (PerkinElmer) was added to each well. The plates were shaken for 30 min at room temperature while protected from light after which luminescence was measured.
(§3) For the receptor binding assays, logIC50 values were calculated using non-linear regression analysis. The error estimation was reported as the 95% confidence interval. […] The calculations were performed in GraphPad Prism 6.4 (GraphPad, San Diego, CA) and error estimation was expressed as the 95% confidence interval. […] Averages, error estimation, ratios and plasma shifts were all calculated on logIC50 or logEC50 values and transformed to the anti-log values for reporting purposes.

Rat GCGR = biological target: T2, Rat GCGR (Rattus norvegicus, UniProt P30082); assay: as above; type: cell-based; details: Rat receptors, whole BHK cells, 0% plasma, 3 h 37°C, value (95% CI)
T2 construct: a plasmid encoding either the glucagon receptor or the GLP-1 receptor from the relevant species; expressed in transfected cells
Description: as §1, §2, §3

Mouse GLP-1R = biological target: T3, Mouse GLP-1R (Mus musculus, UniProt O35659); assay: as above; type: cell-based; details: Mouse receptors, whole BHK cells, 3 h 37°C, value (95% CI)
T3 construct: a plasmid encoding either the glucagon receptor or the GLP-1 receptor from the relevant species; expressed in transfected cells
T3 sequence (O35659 22-463): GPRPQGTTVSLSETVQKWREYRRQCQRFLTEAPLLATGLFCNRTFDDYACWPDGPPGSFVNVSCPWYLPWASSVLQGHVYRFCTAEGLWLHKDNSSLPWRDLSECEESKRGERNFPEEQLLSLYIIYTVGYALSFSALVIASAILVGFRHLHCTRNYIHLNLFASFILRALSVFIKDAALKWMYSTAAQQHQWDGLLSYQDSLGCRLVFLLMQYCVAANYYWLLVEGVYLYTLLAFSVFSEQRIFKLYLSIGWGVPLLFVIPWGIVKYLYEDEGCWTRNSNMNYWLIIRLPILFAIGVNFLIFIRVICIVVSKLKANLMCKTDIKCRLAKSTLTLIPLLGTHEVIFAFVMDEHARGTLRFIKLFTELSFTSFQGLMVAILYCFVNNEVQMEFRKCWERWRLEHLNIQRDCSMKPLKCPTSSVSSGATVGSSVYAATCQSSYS
Description: as §1, §2, §3

Mouse GCGR [2] = biological target: T1, Mouse GCGR; assay: Receptor binding, SPA competitive binding assay; details: SPA competitive binding on BHK cell membranes, [125I]-glucagon tracer, 1% species specific plasma, 2 h 30°C; value (95% CI)
Description: as §1, §3

DIO mice = assay: Subchronic effect on glucose tolerance in DIO mice (IPGTT at steady state); type: in vivo, mouse; details: after 3 weeks daily s.c. dosing, Cmax (5 h post dosing), p<0.001
[3] = GCGR EC50, pM (95% CI) 100% plasma, 100% species-specific plasma
[4] = GLP-1R EC50, pM (95% CI) 100% plasma, 100% species-specific plasma

T1 sequence (Q61606 27-485): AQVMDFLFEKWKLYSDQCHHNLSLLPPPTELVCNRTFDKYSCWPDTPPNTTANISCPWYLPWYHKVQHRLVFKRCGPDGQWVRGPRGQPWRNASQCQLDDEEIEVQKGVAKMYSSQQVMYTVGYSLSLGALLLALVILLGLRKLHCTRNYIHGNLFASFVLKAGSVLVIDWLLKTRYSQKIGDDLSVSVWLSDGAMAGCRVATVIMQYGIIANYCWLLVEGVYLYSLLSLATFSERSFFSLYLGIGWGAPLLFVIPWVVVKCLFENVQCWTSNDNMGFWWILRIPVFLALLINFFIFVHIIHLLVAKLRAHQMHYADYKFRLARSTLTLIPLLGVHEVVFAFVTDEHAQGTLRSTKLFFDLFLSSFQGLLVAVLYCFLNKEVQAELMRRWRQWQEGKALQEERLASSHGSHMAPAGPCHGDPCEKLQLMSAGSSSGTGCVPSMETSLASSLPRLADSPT
T2 sequence (P30082 27-485): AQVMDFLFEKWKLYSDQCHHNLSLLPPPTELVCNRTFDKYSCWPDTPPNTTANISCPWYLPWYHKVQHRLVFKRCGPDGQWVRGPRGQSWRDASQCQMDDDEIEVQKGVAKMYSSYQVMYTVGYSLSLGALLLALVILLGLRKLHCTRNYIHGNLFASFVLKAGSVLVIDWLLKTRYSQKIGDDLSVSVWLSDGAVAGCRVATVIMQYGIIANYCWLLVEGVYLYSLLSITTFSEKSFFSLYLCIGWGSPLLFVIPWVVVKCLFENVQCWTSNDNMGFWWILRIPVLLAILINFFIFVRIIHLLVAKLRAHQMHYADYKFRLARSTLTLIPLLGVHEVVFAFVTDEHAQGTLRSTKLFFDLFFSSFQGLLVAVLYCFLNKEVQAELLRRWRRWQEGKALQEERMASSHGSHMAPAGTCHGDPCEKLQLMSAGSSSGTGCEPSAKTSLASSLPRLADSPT

Row | EC50 (Mouse GCGR [1]; [3]) [pM] | EC50 (Rat GCGR) [nM] | EC50 (Mouse GLP-1R; [4]) [pM] | IC50 (Mouse GCGR [2]) [nM] | EC50 (Mouse GCGR [1]; GCGR EC50, pM (95% CI) 0% plasma, 0% plasma) [pM] | SMILES | Weight loss (DIO rats; 3 nmol/kg each compound s.c. once daily) [%] | Cumulative food intake (DIO rats; 3 nmol/kg s.c. once daily) | Basal blood glucose vs vehicle (DIO mice) | EC50 (Mouse GLP-1R; GLP-1R EC50, pM (95% CI) 0% plasma, 0% plasma) [pM]
1 | 442000 | 35.3 | 24.6 | – | – | CC(C)C[C@H](NC(=O)[C@H](CC(C)C)NC(=O)[C@H](Cc1c[nH]c2ccccc12)NC(=O)[C@H](CCC(N)=O)NC(=O)[C@@H](NC(=O)[C@H](Cc1ccccc1)NC(=O)[C@H](CCC(=O)O)NC(=O)[C@H](CCCNC(=N)N)NC(=O)[C@H](C)NC(=O)[C@H](C)NC(=O)[C@H](CCCNC(=N)N)NC(=O)[C@H](CO)NC(=O)[C@H](CC(=O)O)NC(=O)[C@H](CC(C)C)NC(=O)[C@H](Cc1ccc(O)cc1)NC(=O)[C@H](CCCCN)NC(=O)[C@H](CO)NC(=O)[C@H](CC(C)C)NC(=O)[C@H](CC(=O)O)NC(=O)[C@H](CO)NC(=O)[C@@H](NC(=O)[C@H](Cc1ccccc1)NC(=O)[C@@H](NC(=O)CNC(=O)[C@H](CCC(=O)O)NC(=O)C(C)(C)NC(=O)[C@@H](N)Cc1c[nH]cn1)[C@@H](C)O)[C@@H](C)O)C(C)C)C(=O)N[C@@H](CC(N)=O)C(=O)N[C@@H](CCCCNC(=O)CC[C@H](NC(=O)CC[C@H](NC(=O)COCCOCCNC(=O)COCCOCCNC(=O)CC[C@H](NC(=O)CCCCCCCCCCCCCCCCC(=O)O)C(=O)O)C(=O)O)C(=O)O)C(N)=O [GLP-1 reference] (H-H[Aib]EGTFTSDLSKYLDSRAAREFVQWLLNK([γGlu-γGlu-AEEA-AEEA-γGlu-C18 diacid])-NH2) | 5 | equal reduction | – | –
2 | 2540 | – | 95.3 | 14 | 29.7 | CC[C@H](C)[C@H](NC(=O)[C@H](Cc1ccccc1)NC(=O)[C@H](CCC(=O)O)NC(=O)[C@H](CCCNC(=N)N)NC(=O)[C@H](C)NC(=O)[C@H](C)NC(=O)[C@H](CCC(N)=O)NC(=O)[C@H](CCC(=O)O)NC(=O)[C@H](CCC(=O)O)NC(=O)[C@H](CC(C)C)NC(=O)[C@H](Cc1ccc(O)cc1)NC(=O)[C@H](CCCCN)NC(=O)[C@H](CO)NC(=O)[C@@H](NC(=O)[C@H](CC(=O)O)NC(=O)[C@H](CO)NC(=O)[C@@H](NC(=O)[C@H](Cc1ccccc1)NC(=O)[C@@H](NC(=O)CNC(=O)[C@H](Cc1c[nH]cn1)NC(=O)C(C)(C)NC(=O)CCc1c[nH]cn1)[C@@H](C)O)[C@@H](C)O)C(C)C)C(=O)N[C@@H](C)C(=O)N[C@@H](Cc1c[nH]c2ccccc12)C(=O)N[C@@H](CC(C)C)C(=O)N[C@@H](CC(C)C)C(=O)N[C@@H](CCCCNC(=O)COCCOCCNC(=O)COCCOCCNC(=O)CC[C@H](NC(=O)CC[C@H](NC(=O)CCCCCCCCCCCCCCCCC(=O)O)C(=O)O)C(=O)O)C(=O)N[C@H](C(N)=O)[C@@H](C)O [NN1359] (Desaminohistidyl-[Aib]HGTFTSDVSKYLEEQAAREFIAWLLK([AEEA-AEEA-γGlu-γGlu-C18 diacid])T-NH2) | – | – | significantly improved | –

Row | SMILES | EC50 (Mouse GCGR [1]; [3]) [pM] | EC50 (Rat GCGR) [nM] | EC50 (Mouse GLP-1R; [4]) [pM] | IC50 (Mouse GCGR [2]) [nM] | EC50 (Mouse GCGR [1]; GCGR EC50, pM (95% CI) 0% plasma, 0% plasma) [pM] | Weight loss (DIO rats; 3 nmol/kg each compound s.c. once daily) [%] | Cumulative food intake (DIO rats; 3 nmol/kg s.c. once daily) | Basal blood glucose vs vehicle (DIO mice) | EC50 (Mouse GLP-1R; GLP-1R EC50, pM (95% CI) 0% plasma, 0% plasma) [pM]
3 | CC(C)C[C@H](NC(=O)[C@H](CC(=O)O)NC(=O)[C@H](CC(C)C)NC(=O)[C@H](Cc1ccc(O)cc1)NC(=O)[C@H](CCCCN)NC(=O)[C@H](CO)NC(=O)[C@H](CC(C)C)NC(=O)[C@H](CC(=O)O)NC(=O)[C@H](CO)NC(=O)[C@@H](NC(=O)[C@H](Cc1ccccc1)NC(=O)[C@@H](NC(=O)CNC(=O)[C@H](CCC(N)=O)NC(=O)C1(NC(=O)[C@@H](N)Cc2c[nH]cn2)CCC1)[C@@H](C)O)[C@@H](C)O)C(=O)N[C@@H](CCCNC(=N)N)C(=O)N[C@@H](CCCNC(=N)N)C(=O)N[C@@H](C)C(=O)N[C@@H](CCCNC(=N)N)C(=O)N[C@@H](CC(=O)O)C(=O)N[C@@H](Cc1ccccc1)C(=O)N[C@H](C(=O)N[C@@H](CCC(N)=O)C(=O)N[C@@H](Cc1c[nH]c2ccccc12)C(=O)N[C@@H](CC(C)C)C(=O)N[C@@H](CC(C)C)C(=O)N[C@@H](CCCCNC(=O)CC[C@H](NC(=O)CC[C@H](NC(=O)COCCOCCNC(=O)COCCOCCNC(=O)CC[C@H](NC(=O)CC[C@H](NC(=O)CCCCCCCCCCCCCCCCC(=O)O)C(=O)O)C(=O)O)C(=O)O)C(=O)O)C(=O)N[C@H](C(N)=O)[C@@H](C)O)C(C)C [NN1151] (H-H[Ac4c]QGTFTSDLSKYLDLRRARDFVQWLLK([γGlu-γGlu-AEEA-AEEA-γGlu-γGlu-C18 diacid])T-NH2) | 60.3 | – | 161 | – | – | – | – | improved | 1.13
